Experimental data reported in patent US6436948B1, “Method for the treatment of psoriasis and genital warts” (priority 1995, dated 2002).
“Also recorded” adds a separate entry of the source.

Key:
COLO205 = experiment: NCI cancer screening program, SRB: COLO205; type: cell-based; settings: Colon Cancer
BKVX = settings: Non-Small Cell Lung Cancer, PG +50, 48 hours
Source text: (§2) GI50, TGI and LC50 are values representing the concentrations at which the PG (percent of growth inhibition), defined below, is +50, 0, and −50, respectively.
(§3) If (Mean ODtest−Mean ODtzero)≧0. then PG=100×(Mean ODtest−Mean ODtzero)/(Mean ODctrl−Mean ODtzero)
(§4) If (Mean ODtest−Mean ODtzero)<0. then PG=100×(Mean ODtest−Mean ODtzero)/(Mean ODtzero)
(§5) Mean ODtzero=The average of optical density measurements of SRB-derived color just before exposure of cells to the test compound.
(§6) Mean ODtestThe average of optical density measurements of SRB-derived color after 48 hours exposure of cells to the test compound.
(§7) Mean ODctrl=The average of optical density measurements of SRB-derived color after 48 hours with no exposure of cells to the test compound.
(§8) If these response parameters could not be obtained by interpolation, the value given for each response parameter is the highest concentration tested and is preceded by a “>” sign.

SP-295 = settings: CNS Cancer, PG +50, 48 hours
Source text: as §2, §3, §4, §5, §6, §7, §8

785-4 = settings: Renal Cancer, PG +50, 48 hours
Source text: as §2, §3, §4, §5, §6, §7, §8

NCI-H23 = experiment: NCI cancer screening program, SRB: NCI-H23; type: cell-based; settings: Non-Small Cell Lung Cancer, PG +50, 48 hours
MDA-N = experiment: NCI cancer screening program, SRB: MDA-N; type: cell-based; settings: Breast Cancer, PG +50, 48 hours
OVCAR-5 = experiment: NCI cancer screening program, SRB: OVCAR-5; type: cell-based; settings: Ovarian Cancer, PG +50, 48 hours
MCF7 = experiment: NCI cancer screening program, SRB: MCF7; type: cell-based; settings: Breast Cancer, PG +50, 48 hours
NCr nude mice = type: in vivo
Protocol: (§1) Drugs were given at the indicated doses on days 0 through 4 and tumor sizes were measured every several days. The tumor growth curves were generated as described in Bell, et al., Cancer(phila.) 36:2437-2440 (1975), and are illustrated in FIGS. 5(a) and 5(b).
Toxicity was evaluated by changes in body weight.

MDA-MB-435 = experiment: NCI cancer screening program, SRB: MDA-MB-435; type: cell-based; settings: Breast Cancer
SK-OV-3 = experiment: NCI cancer screening program, SRB: SK-OV-3; type: cell-based; settings: Ovarian Cancer
MALME-3M = experiment: NCI cancer screening program, SRB: MALME-3M; type: cell-based; settings: Melanoma, PG +50, 48 hours
OVCAR-8 = experiment: NCI cancer screening program, SRB: OVCAR-8; type: cell-based; settings: Ovarian Cancer
SN12C = experiment: NCI cancer screening program, SRB: SN12C; type: cell-based; settings: Renal Cancer, PG +50, 48 hours
MCF7/ADR-RES = experiment: NCI cancer screening program, SRB: MCF7/ADR-RES; type: cell-based; settings: Breast Cancer
ACHN = experiment: NCI cancer screening program, SRB: ACHN; type: cell-based; settings: Renal Cancer, PG +50, 48 hours
HT29 = experiment: NCI cancer screening program, SRB: HT29; type: cell-based; settings: Colon Cancer, PG +50, 48 hours
DU-145 tumors = experiment: DU-145 xenograft in NCr nude mice; type: in vivo, human
Protocol: FIG. 5 is a graph of the inhibition of human tumor growth by […]. Three to six week old NCr nude mice were inoculated subcutaneously in each flank with 2×10^6 HepG2 or DU-145 cells. Treatment was started when the tumors were in an advanced stage of growth. Drugs were administered twice a day on days 0 through 4 and tumor sizes were measured on the indicated days. […] Each data point represents the means±SD of 10 tumors in graph A and six tumors in graph B.
Three to six-week-old NCr nude mice (Taconic Immunodeficient Mice and Rats) were inoculated s.c. in each flank with 2×10^6HepG2 or DU-145 cells and tumors were allowed to grow. Treatment was started when the tumors were 100-250mg as determined by caliper measurement and calculated according to the formula:
Tumor Weight(mg)=length(mm)×width(mm^2)÷2
as §1

CEM cells = experiment: In vitro cytotoxicity, methylene blue assay / cell count: CEM; type: cell-based; settings: Homo sapiens, CCRF-CEM, three generations, mean ± standard deviation of five experiments, read-out: ID50 (the source's name)
RPMI-2.26 = experiment: NCI cancer screening program, SRB: RPMI-2.26; type: cell-based; settings: Leukemia, PG +50, 48 hours
T-47D = experiment: NCI cancer screening program, SRB: T-47D; type: cell-based; settings: Breast Cancer, PG +50, 48 hours
MDA-MB-231/ATCC = settings: Breast Cancer, PG +50, 48 hours
Source text: as §2, §3, §4, §5, §6, §7, §8

RXF-393 = experiment: NCI cancer screening program, SRB: RXF-393; type: cell-based; settings: Renal Cancer, PG +50, 48 hours
TK-30 = settings: Renal Cancer
Source text: as §2, §3, §4, §5, §6, §7, §8

BT-549 = experiment: NCI cancer screening program, SRB: BT-549; type: cell-based; settings: Breast Cancer, PG +50, 48 hours
SK-MEL-28 = experiment: NCI cancer screening program, SRB: SK-MEL-28; type: cell-based; settings: Melanoma, PG +50, 48 hours
[1] = Phosphorylation to nucleotides in vivo
cytidine deaminase = cytidine deaminase (Homo sapiens, UniProt P32320); experiment: Enzymatic studies of deamination
cytidine deaminase, sequence (P32320 whole entry, species assumed): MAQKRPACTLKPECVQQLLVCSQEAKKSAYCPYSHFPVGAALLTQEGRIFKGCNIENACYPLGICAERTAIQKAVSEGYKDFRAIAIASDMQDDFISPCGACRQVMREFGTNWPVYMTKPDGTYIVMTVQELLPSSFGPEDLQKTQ

HCT-15 = experiment: NCI cancer screening program, SRB: HCT-15; type: cell-based; settings: Colon Cancer, PG +50, 48 hours
Leukemia P388 cells = experiment: In vivo treatment of leukemia P388 cells implanted ip in BDF1 mice; settings: 25x2x5 mg/kg ip
Protocol: 10^6 Leukemia P388 cells were implanted ip to BDF1 mice obtained from Southern Research Institute, Alabama. (−)-OddC was administered ip twice daily for five days starting one day after tumor cell implantation.
FIG. 3 and Table 1 show the results of these studies.

Colon 38 tumor cells = experiment: In vivo treatment of Colon 38 tumor cells implanted sc in BDF1 mice; set-up: species or system mouse; settings: 25 mg/kg/dose twice daily for five days
Source text: The graph plots tumor growth as a percentage of original tumor weight vs. days. Treatment of the mice occurred in days 1, 2, 3, 4 and 5.
Colon 38 tumor cells were implanted sc to BDF1 mice.

[2] = system: PC-3 prostate carcinoma line; experiment: In vitro cytotoxicity, methylene blue assay / cell count: PC-3; type: cell-based; settings: three generations, mean ± standard deviation of five experiments, read-out: ID50 (the source's name)
HCT-116 = experiment: NCI cancer screening program, SRB: HCT-116; type: cell-based; settings: Colon Cancer, PG +50, 48 hours
SR = experiment: NCI cancer screening program, SRB: SR; type: cell-based; settings: Leukemia, PG +50, 48 hours
SP-268 = settings: CNS Cancer, PG +50, 48 hours
Source text: as §2, §3, §4, §5, §6, §7, §8

PC-3 = experiment: NCI cancer screening program, SRB: PC-3; type: cell-based; settings: Prostate Cancer, PG +50, 48 hours

## Nc1ccn([C@@H]2CO[C@H](CO)O2)c(=O)n1 [(−)-OddC, (−)-(2S,4S)-1-(2-hydroxymethyl-1,3-dioxolan-4-yl)cytosine]
COLO205; PG 0, 48 hours
  Log10TGI: >−4.00
COLO205; PG +50, 48 hours
  Log10GI50: −4.03
BKVX
  Log10GI50: >−4.00
SP-295
  Log10GI50: −6.24
785-4
  LOG10GI50: −5.36
NCI-H23
  Log10GI50: −4.92
MDA-N
  LOG10GI50: −4.33
OVCAR-5
  LOG10GI50: −4.41
MCF7
  LOG10GI50: −5.95
NCr nude mice; doses given, 25 mg/kg twice a day days 0 through 4
  Toxicity as indicated by weight loss of the animals: equally toxic
NCr nude mice; twice a day for five continuous days of treatment, preliminary toxicity experiments
  Maximum tolerated dosage: 25 mg/kg
MDA-MB-435; PG 0, 48 hours
  LOG10TGI: >−4.00
MDA-MB-435; PG +50, 48 hours
  LOG10GI50: −4.62
SK-OV-3; PG 0, 48 hours
  LOG10TGI: >−4.00
SK-OV-3; PG +50, 48 hours
  LOG10GI50: −5.35
MALME-3M
  Log10GI50: −4.51
OVCAR-8; PG 0, 48 hours
  LOG10TGI: >−4.00
OVCAR-8; PG +50, 48 hours
  LOG10GI50: −5.82
SN12C
  LOG10GI50: −6.27
MCF7/ADR-RES; PG 0, 48 hours
  LOG10TGI: >−4.00
MCF7/ADR-RES; PG +50, 48 hours
  LOG10GI50: −4.97
ACHN
  LOG10GI50: −6.46
HT29
  Log10GI50: >−4.00
DU-145 tumors; 25 mg/kg twice a day on days 0 through 4, NCr nude mice
  Effect on DU-145 tumors in words: effective
DU-145 tumors; by day 15
  DU-145 tumors regressing completely: half of them regressing completely
CEM cells
  IC50: 0.025 ± 0.03 µM
RPMI-2.26
  Log10GI50: −4.03
T-47D
  LOG10GI50: >−4.00
MDA-MB-231/ATCC
  LOG10GI50: >−4.00
RXF-393
  LOG10GI50: −6.17
TK-30; PG 0, 48 hours
  LOG10TGI: >−4.00
TK-30; PG +50, 48 hours
  LOG10GI50: >−4.00
BT-549
  LOG10GI50: −4.59
SK-MEL-28
  Log10GI50: −4.31
[1]
  Phosphorylation in vivo: can be phosphorylated to mono-, di- and tri-phosphate nucleotide
Cytidine deaminase
  Substrate for deaminase / deamination by cytidine deaminase: not a substrate; also recorded: not deaminated
HCT-15
  Log10GI50: −5.39
Leukemia P388 cells
  Cures/Total (survivors equal or greater than 45 day life span): one long term survivor
Leukemia P388 cells; twice a day on days 1 to 5, 10^6 P388 cells ip on day 0
  Mean Survival Time: 27 days
Colon 38 tumor cells
  Colon tumor cell growth: retarded
[2]
  IC50: 0.056 ± 0.039 µM
HCT-116
  Log10GI50: −5.23
SR
  Log10GI50: −5.95
SP-268
  Log10GI50: −5.18
PC-3
  LOG10GI50: −6.29
